According to US8940913B2, “Herbicides” (Syngenta Crop Protection, LLC, priority 2007, dated 2015):

Columns and labels:
Assay type in all cases: in vivo
Lolium perenne (LOLPE) [1] = test: Pre-emergence herbicidal activity, glasshouse pot test; details: 480 h, rate 250 g/ha, evaluated 20 days later, 100=total damage to plant, 0=no damage to plant
Protocol: (§1) Monocotyledonous and dicotyledonous test plants were sown in standard soil in pots. After cultivation for one day (pre-emergence) or after 10 days cultivation (post-emergence) under controlled conditions in a glasshouse, the plants were sprayed with an aqueous spray solution derived from the formulation of the technical active ingredient in 0.6 ml acetone and 45 ml formulation solution containing 10.6% Emulsogen EL (Registry number 61791-12-6), 42.2% N-methylpyrrolidone, 42.2% dipropylene glycol monomethyl ether (Registry number 34590-94-8) and 0.2% X-77 (Registry number 11097-66-8). The test plants were then grown in a greenhouse under optimum conditions until, 15 days later for post-emergence and 20 days for pre-emergence, the test was evaluated (100=total damage to plant; 0=no damage to plant). Test Plants: Alopecurus myosuroides (ALOMY), Avena fatua (AVEFA), Lolium perenne (LOLPE), Setaria faberi (SETFA), Digitaria sanguinalis (DIGSA), Echinochloa crus-galli (ECHCG)

[2] = tested on: Alopecurus myosuroides (ALOMY); test: as above; details: 480 h, rate 250 g/ha, evaluated 20 days later, 100=total damage to plant, 0=no damage to plant
Protocol: as §1

[3] = tested on: Digitaria sanguinalis (DIGSA); test: as above; details: 480 h, rate 250 g/ha, evaluated 20 days later, 100=total damage to plant, 0=no damage to plant
Protocol: as §1

Avena fatua (AVEFA) [4] = test: as above; details: 480 h, rate 250 g/ha, evaluated 20 days later, 100=total damage to plant, 0=no damage to plant
Protocol: as §1

Setaria faberi (SETFA) [5] = test: as above; details: 480 h, rate 250 g/ha, evaluated 20 days later, 100=total damage to plant, 0=no damage to plant
Protocol: as §1

[6] = tested on: Echinochloa crus-galli (ECHCG); test: as above; details: 480 h, rate 250 g/ha, evaluated 20 days later, 100=total damage to plant, 0=no damage to plant
Protocol: as §1

Lolium perenne (LOLPE) [7] = test: Post-emergence herbicidal activity, glasshouse pot test; details: 360 h, rate 125 g/ha, evaluated 15 days later, 100=total damage to plant, 0=no damage to plant
Protocol: as §1

[8] = tested on: Alopecurus myosuroides (ALOMY); test: as above; details: 360 h, rate 125 g/ha, evaluated 15 days later, 100=total damage to plant, 0=no damage to plant
Protocol: as §1

[9] = tested on: Digitaria sanguinalis (DIGSA); test: as above; details: 360 h, rate 125 g/ha, evaluated 15 days later, 100=total damage to plant, 0=no damage to plant
Protocol: as §1

Avena fatua (AVEFA) [10] = test: as above; details: 360 h, rate 125 g/ha, evaluated 15 days later, 100=total damage to plant, 0=no damage to plant
Protocol: as §1

Setaria faberi (SETFA) [11] = test: as above; details: 360 h, rate 125 g/ha, evaluated 15 days later, 100=total damage to plant, 0=no damage to plant
Protocol: as §1

[12] = tested on: Echinochloa crus-galli (ECHCG); test: as above; details: 360 h, rate 125 g/ha, evaluated 15 days later, 100=total damage to plant, 0=no damage to plant
Protocol: as §1

Structure (SMILES)	pest or weed control at 250 g/ha (Lolium perenne (LOLPE) [1])	pest or weed control at 250 g/ha [2]	pest or weed control at 250 g/ha [3]	pest or weed control at 250 g/ha (Avena fatua (AVEFA) [4])	pest or weed control at 250 g/ha (Setaria faberi (SETFA) [5])	pest or weed control at 250 g/ha [6]	pest or weed control at 125 g/ha (Lolium perenne (LOLPE) [7])	pest or weed control at 125 g/ha [8]	pest or weed control at 125 g/ha [9]	pest or weed control at 125 g/ha (Avena fatua (AVEFA) [10])	pest or weed control at 125 g/ha (Setaria faberi (SETFA) [11])	pest or weed control at 125 g/ha [12]
CCc1ccc(-c2ccc(Cl)c(Cl)c2)cc1C1=C(O)[C@H]2[C@@H](C1=O)[C@@H]1CC[C@H]2O1 [Compound T14]	40%	10%	90%	20%	100%	90%	30%	90%	100%	80%	100%	100%
CCc1ccc(-c2ccc(Cl)cc2)cc1C1=C(O)[C@H]2[C@@H](C1=O)[C@@H]1C=C[C@H]2O1 (racemic) [Compound T4, (1RS,2SR,6RS,7SR)-4-(4′-chloro-4-ethylbiphen-3-yl)-10-oxatricyclo[5.2.1.0^2,6]dec-8-ene-3,5-dione]	60%	60%	100%	50%	100%	100%	80%	80%	100%	60%	100%	100%
Cc1cc(-c2ccccc2)cc(C)c1C1=C(OC(=O)C(C)(C)C)[C@H]2[C@@H](C1=O)[C@@H]1CC[C@@]2(C)O1 [Compound P8]	100%	100%	100%	90%	100%	90%	80%	100%	100%	100%	100%	100%
CCc1cc(-c2ccc(C)cc2)cc(CC)c1C1=C(OC(C)=O)[C@H]2[C@@H](C1=O)[C@@H]1CC[C@H]2O1 [Compound P9]	70%	50%	40%	60%	60%	100%	80%	80%	100%	80%	90%	100%
Cc1cc(-c2ccccc2)cc(C)c1C1=C(OC(=O)C(C)C)[C@H]2[C@@H](C1=O)[C@@H]1CC[C@H]2O1 [Compound P2]	90%	100%	100%	70%	100%	80%	90%	100%	90%	80%	100%	100%
CCc1ccc(-c2ccc(Cl)cc2Cl)cc1C1=C(O)[C@H]2[C@@H](C1=O)[C@]1(C)CC[C@@]2(C)O1 [Compound T24]	30%	10%	100%	30%	100%	100%	60%	90%	100%	90%	100%	100%
CCc1ccc(-c2ccc(Cl)c(F)c2)cc1C1=C(O)[C@H]2[C@@H](C1=O)[C@]1(C)CC[C@@]2(C)O1 [Compound T33]	50%	20%	70%	0%	80%	70%	80%	100%	100%	100%	100%	100%
CCc1ccc(-c2ccc(Cl)c(F)c2Cl)cc1C1=C(O)[C@H]2[C@@H](C1=O)[C@]1(C)CC[C@@]2(C)O1 [Compound T37]	50%	20%	100%	30%	80%	80%	70%	90%	100%	100%	100%	100%
Cc1cc(-c2ccccc2)cc(C)c1C1C(=O)[C@@H]2[C@H](C1=O)[C@@]1(C)CC[C@]2(C)O1 (stereo partly drawn) [Compound T7]	40%	90%	100%	40%	100%	100%	60%	70%	80%	60%	90%	100%
CCc1ccc(-c2ccc(Cl)cc2F)cc1C1=C(O)[C@H]2[C@@H](C1=O)[C@]1(C)CC[C@@]2(C)O1 (racemic) [Compound T23, (1RS,2SR,6RS,7SR)-4-(4′-chloro-4-ethyl-2′-fluorobiphen-3-yl)-1,7-dimethyl-10-oxatricyclo[5.2.1.0^2,6]decane-3,5-dione]	70%	40%	100%	60%	100%	100%	70%	100%	90%	100%	90%	100%
CCc1ccc(-c2ccc(Cl)cc2Cl)cc1C1=C(O)[C@H]2[C@@H](C1=O)[C@@H]1CC[C@H]2O1 (racemic) [Compound T11, (1RS,2SR,6RS,7SR)-4-(2′,4′-dichloro-4-ethylbiphen-3-yl)-10-oxa-tricyclo[5.2.1.0^2,6]decane-3,5-dione]	80%	70%	90%	60%	100%	100%	50%	100%	90%	90%	100%	100%
